Experimental findings from patent publication US9067943B2, “[1,2,3]triazolo[4,5-D]pyrimidine derivatives” (priority 2011, dated 2015) are described below.

One experiment has as its target T1, human CB1 receptors (Homo sapiens, UniProt P21554).
T1 construct: expressed in transfected cells; host or cells: CHO cells
The experiment is described as follows: cAMP assay. Format: cell-based. The procedure, abridged:
(§1)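 CHO cells expressing human CB1 or CB2 were preincubated 30 min at 30 °C in Krebs Ringer bicarbonate buffer with 1 mM IBMX, then exposed to compounds for 30 min at 30 °C. cAMP was measured by time-resolved FRET against a cAMP standard curve, and EC50 values were derived.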

For the next experiment, the target named is T2, human CB2 receptors (Homo sapiens, UniProt P34972).
T2 construct: expressed in transfected cells; host or cells: CHO cells
The experiment is described as follows: cAMP assay. Format: cell-based. In short, it runs like this:
as §1

Setting [1] is: functional cAMP assay, CHO cells expressing human CB2, read-out: human CB2 EC50.

Read-outs that look alike come from different tables or passages of the source.

T2 sequence (P34972 whole entry): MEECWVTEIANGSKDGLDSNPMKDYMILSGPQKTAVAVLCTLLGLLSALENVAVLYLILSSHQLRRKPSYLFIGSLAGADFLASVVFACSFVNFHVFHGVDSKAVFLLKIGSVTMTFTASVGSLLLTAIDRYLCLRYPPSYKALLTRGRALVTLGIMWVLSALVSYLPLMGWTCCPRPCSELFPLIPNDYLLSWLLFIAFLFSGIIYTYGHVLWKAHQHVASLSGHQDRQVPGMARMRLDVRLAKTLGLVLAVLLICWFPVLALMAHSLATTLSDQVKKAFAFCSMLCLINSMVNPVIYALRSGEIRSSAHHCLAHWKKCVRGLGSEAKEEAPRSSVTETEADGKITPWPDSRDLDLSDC
T1 sequence (P21554 whole entry): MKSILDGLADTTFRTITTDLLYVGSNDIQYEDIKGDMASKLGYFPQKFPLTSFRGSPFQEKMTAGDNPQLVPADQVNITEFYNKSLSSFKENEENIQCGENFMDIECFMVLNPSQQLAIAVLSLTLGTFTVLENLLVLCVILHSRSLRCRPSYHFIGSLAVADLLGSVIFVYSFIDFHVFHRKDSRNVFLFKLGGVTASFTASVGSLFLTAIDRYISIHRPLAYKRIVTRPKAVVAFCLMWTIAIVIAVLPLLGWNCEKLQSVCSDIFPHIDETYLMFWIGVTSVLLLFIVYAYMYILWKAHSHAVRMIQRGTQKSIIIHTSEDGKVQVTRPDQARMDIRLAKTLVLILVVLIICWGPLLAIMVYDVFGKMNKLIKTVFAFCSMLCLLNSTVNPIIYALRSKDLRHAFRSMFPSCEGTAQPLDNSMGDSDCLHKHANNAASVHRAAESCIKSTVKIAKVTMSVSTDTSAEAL

As for `CC(C)(C)c1nc(N2CCC(F)(F)C2)c2nn(Cc3nnnn3C3CC3)nc2n1` [Example 92, 5-tert-Butyl-2-(1-cyclopropyl-1H-tetrazol-5-ylmethyl)-7-(3,3-difluoro-pyrrolidin-1-yl)-2H-[1,2,3]triazolo[4,5-d]pyrimidine], the figures for the EC50 on human CB1 receptors and on human CB2 receptors were 1580 nM and 5 nM, respectively.

Consider `CC(C)(C)c1nc(N2CC[C@H](O)C2)c2nn(Cc3cccnc3Nc3ccc([N+](=O)[O-])c4nonc34)nc2n1` [Example 93, (S)-1-{5-tert-Butyl-2-[2-(7-nitro-benzo[1,2,5]oxadiazol-4-ylamino)-pyridin-3-ylmethyl]-2H-[1,2,3]triazolo[4,5-d]pyrimidin-7-yl}-pyrrolidin-3-ol], for which the figures for the EC50 at human CB1 receptors and on human CB2 receptors (setting [1]) were greater than 10000 nM and 270 nM, respectively.

In the case of `CC(C)(C)c1nc(N2CC[C@H](O)C2)c2nn(Cc3nnnn3C3CC3)nc2n1` [Example 94, (S)-1-[5-tert-Butyl-2-(1-cyclopropyl-1H-tetrazol-5-ylmethyl)-2H-[1,2,3]triazolo[4,5-d]pyrimidin-7-yl]-pyrrolidin-3-ol], the results for the EC50 on human CB1 receptors and at human CB2 receptors (setting [1]) were greater than 10000 nM and 251 nM, respectively.

As to `Cc1nc(Cn2nc3nc(C(C)(C)C)nc(N4CC[C@H](O)C4)c3n2)n(C)n1` [Example 95, (S)-1-[5-tert-Butyl-2-(2,5-dimethyl-2H-[1,2,4]triazol-3-ylmethyl)-2H-[1,2,3]triazolo[4,5-d]pyrimidin-7-yl]-pyrrolidin-3-ol], the EC50 on human CB1 receptors was greater than 10000 nM; at human CB2 receptors (setting [1]) it was 257 nM.

Turning to `Cc1nc(Cn2nc3nc(C(C)(C)C)nc(N4CCC(F)(F)C4)c3n2)n(C)n1` [Example 96, 5-tert-Butyl-7-(3,3-difluoro-pyrrolidin-1-yl)-2-(2,5-dimethyl-2H-[1,2,4]triazol-3-ylmethyl)-2H-[1,2,3]triazolo[4,5-d]pyrimidine], the EC50 on human CB1 receptors is greater than 10000 nM; on human CB2 receptors, 22.6 nM.

With `CC(C)(C)c1nc(N2CC[C@H](O)[C@@H]2CO)c2nn(Cc3nnnn3C3CC3)nc2n1` [Example 97, (2S,3S)-1-[5-tert-Butyl-2-(1-cyclopropyl-1H-tetrazol-5-ylmethyl)-2H-[1,2,3]triazolo[4,5-d]pyrimidin-7-yl]-2-hydroxymethyl-pyrrolidin-3-ol], the EC50 on human CB1 receptors is greater than 10000 nM; at human CB2 receptors (setting [1]) it was 144 nM.

Consider `Cc1nonc1Cn1nc2nc(C(C)(C)C)nc(N3CC[C@H](O)[C@@H]3CO)c2n1` [Example 98, (2S,3S)-1-[5-tert-Butyl-2-(4-methyl-furazan-3-ylmethyl)-2H-[1,2,3]triazolo[4,5-d]pyrimidin-7-yl]-2-hydroxymethyl-pyrrolidin-3-ol], for which the concentration giving a half-maximal response (EC50) at human CB1 receptors is greater than 10000 nM; at human CB2 receptors (setting [1]), 211 nM.

With `Cc1nonc1Cn1nc2nc(C(C)(C)C)nc(N3CC(F)(F)C(F)(F)C3)c2n1` [Example 99, 5-tert-Butyl-2-(4-methyl-furazan-3-ylmethyl)-7-(3,3,4,4-tetrafluoro-pyrrolidin-1-yl)-2H-[1,2,3]triazolo[4,5-d]pyrimidine], the EC50 was greater than 10000 nM on human CB1 receptors and 0.9 nM at human CB2 receptors.

As for `Cc1noc(Cn2nc3nc(C(C)(C)C)nc(N4CC(F)(F)C(F)(F)C4)c3n2)n1` [Example 100, 5-tert-Butyl-2-(3-methyl-[1,2,4]oxadiazol-5-ylmethyl)-7-(3,3,4,4-tetrafluoro-pyrrolidin-1-yl)-2H-[1,2,3]triazolo[4,5-d]pyrimidine], the EC50 on human CB1 receptors is greater than 10000 nM; at human CB2 receptors, 4.6 nM.

For `Cc1nnc(Cn2nc3nc(C(C)(C)C)nc(N4CC(F)(F)C(F)(F)C4)c3n2)o1` [Example 101, 5-tert-Butyl-2-(5-methyl-[1,3,4]oxadiazol-2-ylmethyl)-7-(3,3,4,4-tetrafluoro-pyrrolidin-1-yl)-2H-[1,2,3]triazolo[4,5-d]pyrimidine], the EC50 on human CB1 receptors was greater than 10000 nM; at human CB2 receptors it was 15.7 nM.

With `Cn1nnnc1Cn1nc2nc(C(C)(C)C)nc(N3CC(F)(F)C(F)(F)C3)c2n1` [Example 102, 5-tert-Butyl-2-(1-methyl-1H-tetrazol-5-ylmethyl)-7-(3,3,4,4-tetrafluoro-pyrrolidin-1-yl)-2H-[1,2,3]triazolo[4,5-d]pyrimidine], the EC50 is greater than 10000 nM on human CB1 receptors and 6.3 nM on human CB2 receptors.

On to `Cc1nnc(Cn2nc3nc(C(C)(C)C)nc(N4CC(F)(F)C(F)(F)C4)c3n2)n1C` [Example 103, 5-tert-Butyl-2-(4,5-dimethyl-4H-[1,2,4]triazol-3-ylmethyl)-7-(3,3,4,4-tetrafluoro-pyrrolidin-1-yl)-2H-[1,2,3]triazolo[4,5-d]pyrimidine], for which the EC50 is greater than 10000 nM on human CB1 receptors and 20.9 nM at human CB2 receptors.

For `Cn1nncc1Cn1nc2nc(C(C)(C)C)nc(N3CC(F)(F)C(F)(F)C3)c2n1` [Example 104, 5-tert-Butyl-2-(3-methyl-3H-[1,2,3]triazol-4-ylmethyl)-7-(3,3,4,4-tetrafluoro-pyrrolidin-1-yl)-2H-[1,2,3]triazolo[4,5-d]pyrimidine], the EC50 was greater than 10000 nM on human CB1 receptors and 10.1 nM at human CB2 receptors.

With `Cc1nnc(Cn2nc3nc(C(C)(C)C)nc(N4CC5(COC5)C4)c3n2)n1C` [Example 106, 5-tert-Butyl-2-(4,5-dimethyl-4H-[1,2,4]triazol-3-ylmethyl)-7-(2-oxa-6-aza-spiro[3.3]hept-6-yl)-2H-[1,2,3]triazolo[4,5-d]pyrimidine], the EC50 at human CB1 receptors is greater than 10000 nM; at human CB2 receptors, 62.7 nM.

`CC(C)(C)c1nc(N2CC3(COC3)C2)c2nn(Cc3ccccc3S(C)(=O)=O)nc2n1` [Example 107, 5-tert-Butyl-2-(2-methanesulfonyl-benzyl)-7-(2-oxa-6-aza-spiro[3.3]hept-6-yl)-2H-[1,2,3]triazolo[4,5-d]pyrimidine]: the EC50 at human CB1 receptors was greater than 10000 nM; at human CB2 receptors, 8.4 nM.

For the molecule `CC(C)(C)c1nc(N2CC3(COC3)C2)c2nn(Cc3ncccc3Cl)nc2n1` [Example 108, 5-tert-Butyl-2-(3-chloro-pyridin-2-ylmethyl)-7-(2-oxa-6-aza-spiro[3.3]hept-6-yl)-2H-[1,2,3]triazolo[4,5-d]pyrimidine], the concentration giving a half-maximal response (EC50) at human CB1 receptors stood at 362 nM; at human CB2 receptors, 5.2 nM.

`O[C@H]1CCN(c2nc(OCC(F)(F)F)nc3nn(Cc4ccccc4Cl)nc23)C1` [Example 109, (S)-1-[2-(2-Chloro-benzyl)-5-(2,2,2-trifluoro-ethoxy)-2H-[1,2,3]triazolo[4,5-d]pyrimidin-7-yl]-pyrrolidin-3-ol]: the values for the concentration for a half-maximal effect (EC50) at human CB1 receptors and at human CB2 receptors (setting [1]) were greater than 10000 nM and 107 nM, respectively.

Take `O[C@H]1CCN(c2nc(OCC(F)(F)F)nc3nn(Cc4ccccc4C(F)(F)F)nc23)C1` [Example 110, (S)-1-[5-(2,2,2-Trifluoro-ethoxy)-2-(2-trifluoromethyl-benzyl)-2H-[1,2,3]triazolo[4,5-d]pyrimidin-7-yl]-pyrrolidin-3-ol]: the EC50 on human CB1 receptors was greater than 10000 nM; at human CB2 receptors it was 60 nM.

For the molecule `CC(C)Oc1nc(N2CC[C@H](O)C2)c2nn(Cc3ccccc3Cl)nc2n1` [Example 111, (S)-1-[2-(2-Chloro-benzyl)-5-isopropoxy-2H-[1,2,3]triazolo[4,5-d]pyrimidin-7-yl]-pyrrolidin-3-ol], the figures for the EC50 on human CB1 receptors and at human CB2 receptors (setting [1]) were greater than 10000 nM and 265 nM, respectively.

Consider `Cn1nnnc1Cn1nc2nc(OCC(C)(C)C)nc(N3CCC(F)(F)C3)c2n1` [Example 112, 7-(3,3-Difluoro-pyrrolidin-1-yl)-5-(2,2-dimethyl-propoxy)-2-(1-methyl-1H-tetrazol-5-ylmethyl)-2H-[1,2,3]triazolo[4,5-d]pyrimidine], for which the EC50 was greater than 10000 nM at human CB1 receptors and 30.9 nM on human CB2 receptors.
